EC50 data for 14 molecules are collected here from patent US10064873B2, “Compounds and compositions for treating HIV with derivatives of Betulin” (GlaxoSmithKline LLC, priority 2011, dated 2018).

In general, EC50 refers to the concentration needed to bring the measured effect to its halfway point. As usually defined, the pEC50 is −log10 of the EC50, conventionally taken in molar units.

pEC50: −log10 of the molar value.

The first assay concerns HIV NL4-3 wt. Put plainly: MT4 antiviral assay, NL4-3 strain wild type. The class given is cell-based, HIV-1. The following applies: Human immunodeficiency virus 1, NL43, MT4, read-out: EC50 NL4-3 wt (nM).
Regarding `CC(C)C1=C2[C@H]3CC[C@@H]4[C@@]5(C)CC[C@H](OC(=O)CC(C)(C)C(=O)O)C(C)(C)[C@@H]5CC[C@@]4(C)[C@]3(C)CC[C@@]2([C@H]2CN(C3(c4ncc(Cl)cn4)CC3)C(=O)O2)CC1=O` [Example 60, 4-(((3aR,5aR,5bR,7aR,9S,11aR,11bR,13aS)-3a-((S)-3-(1-(5-chloropyrimidin-2-yl)cyclopropyl)-2-oxooxazolidin-5-yl)-1-isopropyl-5a,5b,8,8,11a-pentamethyl-2-oxo-3,3a,4,5,5a,5b,6,7,7a,8,9,10,11,11a,11b,12,13,13a-octadecahydro-2H-cyclopenta[a]chrysen-9-yl)oxy)-2,2-dimethyl-4-oxobutanoic acid], the EC50 is 60.2 nM.

Turning to `CC(C)C1=C2[C@H]3CC[C@@H]4[C@@]5(C)CC[C@H](OC(=O)CC(C)(C)C(=O)O)C(C)(C)[C@@H]5CC[C@@]4(C)[C@]3(C)CC[C@@]2([C@H](CN(CCN(C)C)Cc2ccc(Cl)cc2)OC(=O)CC(C)(C)C(=O)O)CC1=O` [Example 2, 4-((R)-1-((3aR,5aR,5bR,7aR,9S,11aR,11bR,13aS)-9-((3-Carboxy-3-methylbutanoyl)oxy)-1-isopropyl-5a,5b,8,8,11a-pentamethyl-2-oxo-3,3a,4,5,5a,5b,6,7,7a,8,9,10,11,11a,11b,12,13,13a-octadecahydro-2H-cyclopenta[a]chrysen-3a-yl)-2-((4-chlorobenzyl)(2-(dimethylamino)ethyl)amino)ethoxy)-2,2-dimethyl-4-oxobutanoic acid], the concentration giving a half-maximal response (EC50) is 5.2 nM.

Staying with this assay, now noted: Human immunodeficiency virus 1, NL43; MT4 cells; read-out: EC50 NL4-3 wt.
With `CC(C)C1=C2[C@H]3CC[C@@H]4[C@@]5(C)CC[C@H](OC(=O)CC(C)(C)C(=O)O)C(C)(C)[C@@H]5CC[C@@]4(C)[C@]3(C)CC[C@@]2([C@H](O)CNCc2ccc(Cl)cc2)CC1=O` [Example 15, 4-(((3aR,5aR,5bR,7aR,9S,11aR,11bR,13aS)-3a-((S)-2-((4-Chlorobenzyl)amino)-1-hydroxyethyl)-1-isopropyl-5a,5b,8,8,11a-pentamethyl-2-oxo-3,3a,4,5,5a,5b,6,7,7a,8,9,10,11,11a,11b,12,13,13a-octadecahydro-2H-cyclopenta[a]chrysen-9-yl)oxy)-2,2-dimethyl-4-oxobutanoic acid], the pEC50 was 8.16.

Consider `CC(C)C1=C2[C@H]3CC[C@@H]4[C@@]5(C)CC[C@H](OC(=O)CC(C)(C)C(=O)O)C(C)(C)[C@@H]5CC[C@@]4(C)[C@]3(C)CC[C@@]2([C@H](O)CN(C)Cc2ccc(Cl)cc2)CC1=O` [Example 29, 4-(((3aR,5aR,5bR,7aR,9S,11aR,11bR,13aS)-3a-((S)-2-((4-Chlorobenzyl)(methyl)amino)-1-hydroxyethyl)-1-isopropyl-5a,5b,8,8,11a-pentamethyl-2-oxo-3,3a,4,5,5a,5b,6,7,7a,8,9,10,11,11a,11b,12,13,13a-octadecahydro-2H-cyclopenta[a]chrysen-9-yl)oxy)-2,2-dimethyl-4-oxobutanoic acid], for which the pEC50 is 7.76.

Consider `CC(C)C1=C2[C@H]3CC[C@@H]4[C@@]5(C)CC[C@H](OC(=O)CC(C)(C)C(=O)O)C(C)(C)[C@@H]5CC[C@@]4(C)[C@]3(C)CC[C@@]2([C@@H](O)CNCc2ccc(Cl)cc2)CC1=O` [Example 14, 4-(((3aR,5aR,5bR,7aR,9S,11aR,11bR,13aS)-3a-((R)-2-((4-Chlorobenzyl)amino)-1-hydroxyethyl)-1-isopropyl-5a,5b,8,8,11a-pentamethyl-2-oxo-3,3a,4,5,5a,5b,6,7,7a,8,9,10,11,11a,11b,12,13,13a-octadecahydro-2H-cyclopenta[a]chrysen-9-yl)oxy)-2,2-dimethyl-4-oxobutanoic acid], for which the pEC50 was 8.68.

In the case of `CC(=O)O[C@H](CN(CCN(C)C)Cc1ccccc1Cl)[C@@]12CC[C@]3(C)[C@H](CC[C@@H]4[C@@]5(C)CC[C@H](OC(=O)CC(C)(C)C(=O)O)C(C)(C)[C@@H]5CC[C@]43C)C1=C(C(C)C)C(=O)C2` [Example 36, 4-(((3aR,5aR,5bR,7aR,9S,11aR,11bR,13aS)-3a-((S)-1-Acetoxy-2-((2-chlorobenzyl)(2-(dimethylamino)ethyl)amino)ethyl)-1-isopropyl-5a,5b,8,8,11a-pentamethyl-2-oxo-3,3a,4,5,5a,5b,6,7,7a,8,9,10,11,11a,11b,12,13,13a-octadecahydro-2H-cyclopenta[a]chrysen-9-yl)oxy)-2,2-dimethyl-4-oxobutanoic acid], the pEC50 is 8.40.

On to `CC(C)C1=C2[C@H]3CC[C@@H]4[C@@]5(C)CC[C@H](OC(=O)CC(C)(C)C(=O)O)C(C)(C)[C@@H]5CC[C@@]4(C)[C@]3(C)CC[C@@]2(CCNCc2cccc(Cl)c2F)CC1=O` [Example 8, 4-(((3aR,5aR,5bR,7aR,9S,11aR,11bR,13aS)-3a-(2-((3-Chloro-2-fluorobenzyl)amino)ethyl)-1-isopropyl-5a,5b,8,8,11a-pentamethyl-2-oxo-3,3a,4,5,5a,5b,6,7,7a,8,9,10,11,11a,11b,12,13,13a-octadecahydro-2H-cyclopenta[a]chrysen-9-yl)oxy)-2,2-dimethyl-4-oxobutanoic acid], for which the pEC50 is 8.23.

With `CC(=O)O[C@@H](CNCc1ccc(Cl)cc1)[C@@]12CC[C@]3(C)[C@H](CC[C@@H]4[C@@]5(C)CC[C@H](OC(=O)CC(C)(C)C(=O)O)C(C)(C)[C@@H]5CC[C@]43C)C1=C(C(C)C)C(=O)C2` [Example 16, 4-(((3aR,5aR,5bR,7aR,9S,11aR,11bR,13aS)-3a-((R)-1-Acetoxy-2-((4-chlorobenzyl)amino)ethyl)-1-isopropyl-5a,5b,8,8,11a-pentamethyl-2-oxo-3,3a,4,5,5a,5b,6,7,7a,8,9,10,11,11a,11b,12,13,13a-octadecahydro-2H-cyclopenta[a]chrysen-9-yl)oxy)-2,2-dimethyl-4-oxobutanoic acid], the pEC50 was 7.96.

For `CC(C)C1=C2[C@H]3CC[C@@H]4[C@@]5(C)CC[C@H](OC(=O)CC(C)(C)C(=O)O)C(C)(C)[C@@H]5CC[C@@]4(C)[C@]3(C)CC[C@@]2([C@@H](O)CN(CCN(C)C)Cc2cccc(Cl)c2)CC1=O` [Example 45, 4-(((3aR,5aR,5bR,7aR,9S,11aR,11bR,13aS)-3a-((R)-2-((3-Chlorobenzyl)(2-(dimethylamino)ethyl)amino)-1-hydroxyethyl)-1-isopropyl-5a,5b,8,8,11a-pentamethyl-2-oxo-3,3a,4,5,5a,5b,6,7,7a,8,9,10,11,11a,11b,12,13,13a-octadecahydro-2H-cyclopenta[a]chrysen-9-yl)oxy)-2,2-dimethyl-4-oxobutanoic acid], the negative logarithm of the EC50 (pEC50) was 8.72.

Regarding `CC(=O)O[C@@H](CN(CCN(C)C)Cc1ccc(F)cc1)[C@@]12CC[C@]3(C)[C@H](CC[C@@H]4[C@@]5(C)CC[C@H](OC(=O)CC(C)(C)C(=O)O)C(C)(C)[C@@H]5CC[C@]43C)C1=C(C(C)C)C(=O)C2` [Example 71, 4-(((3aR,5aR,5bR,7aR,9S,11aR,11bR,13aS)-3a-((R)-1-acetoxy-2-((2-(dimethylamino)ethyl)(4-fluorobenzyl)amino)ethyl)-1-isopropyl-5a,5b,8,8,11a-pentamethyl-2-oxo-3,3a,4,5,5a,5b,6,7,7a,8,9,10,11,11a,11b,12,13,13a-octadecahydro-2H-cyclopenta[a]chrysen-9-yl)oxy)-2,2-dimethyl-4-oxobutanoic acid], the pEC50 is 7.51.

For the molecule `CC(C)C1=C2[C@H]3CC[C@@H]4[C@@]5(C)CC[C@H](OC(=O)CC(C)(C)CC(=O)O)C(C)(C)[C@@H]5CC[C@@]4(C)[C@]3(C)CC[C@@]2([C@H](O)CNCc2ccc(Cl)cc2)CC1=O` [Example 73, 5-(((3aR,5aR,5bR,7aR,9S,11aR,11bR,13aS)-3a-((S)-2-((4-chlorobenzyl)amino)-1-hydroxyethyl)-1-isopropyl-5a,5b,8,8,11a-pentamethyl-2-oxo-3,3a,4,5,5a,5b,6,7,7a,8,9,10,11,11a,11b,12,13,13a-octadecahydro-2H-cyclopenta[a]chrysen-9-yl)oxy)-3,3-dimethyl-5-oxopentanoic acid], the pEC50 was 7.50.

Consider `CC(C)C1=C2[C@H]3CC[C@@H]4[C@@]5(C)CC[C@H](OC(=O)CC(C)(C)C(=O)O)C(C)(C)[C@@H]5CC[C@@]4(C)[C@]3(C)CC[C@@]2([C@@H](O)CN(CCN(C)C)Cc2ccc(Cl)cc2Cl)CC1=O` [Example 80, 4-{[(1R,2R,5R,10S,13R,14R, 17S,19R)-5-[(1R)-2-{[(2,4-dichlorophenyl)methyl][2-(dimethylamino)ethyl]amino}-1-hydroxyethyl]-1,2,14,18,18-pentamethyl-7-oxo-8-(propan-2-yl)pentacyclo[11.8.0.0^ {2,10}.0^{5,9}.0^{14,19}]henicos-8-en-17-yl]oxy}-2,2-dimethyl-4-oxobutanoic acid], for which the negative-log EC50 (pEC50) is 8.62.

In the case of `CC(=O)N(Cc1ccc(Cl)cc1)C[C@@H](O)[C@@]12CC[C@]3(C)[C@H](CC[C@@H]4[C@@]5(C)CC[C@H](OC(=O)CC(C)(C)C(=O)O)C(C)(C)[C@@H]5CC[C@]43C)C1=C(C(C)C)C(=O)C2` [Example 33, 4-(((3aR,5aR,5bR,7aR,9S,11aR,11bR,13aS)-3a-((S)-2-(N-(4-Chlorobenzyl)acetamido)-1-hydroxyethyl)-1-isopropyl-5a,5b,8,8,11a-pentamethyl-2-oxo-3,3a,4,5,5a,5b,6,7,7a,8,9,10,11,11a,11b,12,13,13a-octadecahydro-2H-cyclopenta[a]chrysen-9-yl)oxy)-2,2-dimethyl-4-oxobutanoic acid], the pEC50 was 8.28.

`CC(C)C1=C2[C@H]3CC[C@@H]4[C@@]5(C)CC[C@H](OC(=O)CC(C)(C)C(=O)O)C(C)(C)[C@@H]5CC[C@@]4(C)[C@]3(C)CC[C@@]2([C@H](O)CNC2CCCCC2)CC1=O` [Example 68, 4-(((3aR,5aR,5bR,7aR,9S,11aR,11bR,13aS)-3a-((S)-2-(cyclohexylamino)-1-hydroxyethyl)-1-isopropyl-5a,5b,8,8,11a-pentamethyl-2-oxo-3,3a,4,5,5a,5b,6,7,7a,8,9,10,11,11a,11b,12,13,13a-octadecahydro-2H-cyclopenta[a]chrysen-9-yl)oxy)-2,2-dimethyl-4-oxobutanoic acid]: the pEC50 is 7.98.
